# According to PubChem BioAssay (NCI):
#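 GI50 marks 50% less growth. TGI: concentration producing complete growth inhibition.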
# Experiments:
# Assay in all cases: NCI anticancer screen, dose series, 384-well format
# SN12C renal = test system: SN12C renal
# PC-3 prostate = test system: PC-3 prostate
# KM12 colon = test system: KM12 colon
# SK-MEL-5 melanoma = test system: SK-MEL-5 melanoma
# HCC-2998 colon = test system: HCC-2998 colon
# HOP-92 NSCLC = test system: HOP-92 NSCLC
# OVCAR-5 ovarian = test system: OVCAR-5 ovarian
# NCI-H322M lung = test system: NCI-H322M lung
# M14 melanoma = test system: M14 melanoma
# SF-539 CNS = test system: SF-539 CNS
# MDA-MB-468 breast = test system: MDA-MB-468 breast
# NCI-H23 lung = test system: NCI-H23 lung
# ACHN renal = test system: ACHN renal
# UO-31 renal = test system: UO-31 renal
# SF-295 CNS = test system: SF-295 CNS
# IGROV1 ovarian = test system: IGROV1 ovarian
# CAKI-1 renal = test system: CAKI-1 renal
# RXF 393 renal = test system: RXF 393 renal
# NCI-H522 lung = test system: NCI-H522 lung
# CCRF-CEM leukemia = test system: CCRF-CEM leukemia
# A498 renal = test system: A498 renal
# MALME-3M melanoma = test system: MALME-3M melanoma
# NCI-H226 lung = test system: NCI-H226 lung
# MOLT-4 leukemia = test system: MOLT-4 leukemia
# BT-549 breast = test system: BT-549 breast
# T-47D breast = test system: T-47D breast
# OVCAR-4 ovarian = test system: OVCAR-4 ovarian
# SK-OV-3 ovarian = test system: SK-OV-3 ovarian
# HCT-15 colon = test system: HCT-15 colon
# HCT-116 colon = test system: HCT-116 colon
# MDA-MB-231 breast = test system: MDA-MB-231 breast
# SK-MEL-28 melanoma = test system: SK-MEL-28 melanoma
# COLO 205 colon = test system: COLO 205 colon
# HS 578T breast = test system: HS 578T breast
# SNB-75 CNS = test system: SNB-75 CNS
# EKVX NSCLC = test system: EKVX NSCLC
# A549 NSCLC = test system: A549 NSCLC
# SNB-19 CNS = test system: SNB-19 CNS
# HL-60(TB) leukemia = test system: HL-60(TB) leukemia
# LOX IMVI melanoma = test system: LOX IMVI melanoma
# MCF7 breast = test system: MCF7 breast
# TK-10 renal = test system: TK-10 renal
# SW-620 colon = test system: SW-620 colon
# NCI/ADR-RES ovarian = test system: NCI/ADR-RES ovarian
# MDA-MB-435 melanoma = test system: MDA-MB-435 melanoma
# 786-0 renal = test system: 786-0 renal
# SF-268 CNS = test system: SF-268 CNS
# NCI-H460 NSCLC = test system: NCI-H460 NSCLC
# HT29 colon = test system: HT29 colon
# UACC-257 melanoma = test system: UACC-257 melanoma
# HOP-62 NSCLC = test system: HOP-62 NSCLC
# U251 glioblastoma = test system: U251 glioblastoma
# OVCAR-3 ovarian = test system: OVCAR-3 ovarian
# DU-145 prostate = test system: DU-145 prostate
# OVCAR-8 ovarian = test system: OVCAR-8 ovarian
# UACC-62 melanoma = test system: UACC-62 melanoma
# RPMI-8226 leukemia = test system: RPMI-8226 leukemia
# K-562 leukemia = test system: K-562 leukemia
smiles,measurement,setting,value
Cc1ccc(-n2nc(C(C)(C)C)cc2NC(=O)NCc2cc(F)ccc2Oc2ccc3c(cnn3CCO)c2)cc1,GI50,SN12C renal,3.94 µM
same,TGI,SN12C renal,33 µM
same,GI50,PC-3 prostate,6.72 µM
same,TGI,PC-3 prostate,53.1 µM
same,GI50,KM12 colon,1.56 µM
same,TGI,KM12 colon,11.9 µM
same,GI50,SK-MEL-5 melanoma,1.06 µM
same,TGI,SK-MEL-5 melanoma,6.63 µM
same,GI50,HCC-2998 colon,3.47 µM
same,TGI,HCC-2998 colon,13.2 µM
same,GI50,HOP-92 NSCLC,4.1 µM
same,TGI,HOP-92 NSCLC,29.8 µM
same,GI50,OVCAR-5 ovarian,4.52 µM
same,TGI,OVCAR-5 ovarian,50.9 µM
same,GI50,NCI-H322M lung,6.36 µM
same,TGI,NCI-H322M lung,> 100 µM
same,GI50,M14 melanoma,0.427 µM
same,TGI,M14 melanoma,3.11 µM
same,GI50,SF-539 CNS,2.72 µM
same,TGI,SF-539 CNS,28.6 µM
same,GI50,MDA-MB-468 breast,4.56 µM
same,TGI,MDA-MB-468 breast,15 µM
same,GI50,NCI-H23 lung,1.78 µM
same,TGI,NCI-H23 lung,6.08 µM
same,GI50,ACHN renal,3.28 µM
same,TGI,ACHN renal,62.9 µM
same,GI50,UO-31 renal,3.16 µM
same,TGI,UO-31 renal,20.8 µM
same,GI50,SF-295 CNS,18 µM
same,TGI,SF-295 CNS,> 100 µM
same,GI50,IGROV1 ovarian,2.39 µM
same,TGI,IGROV1 ovarian,18 µM
same,GI50,CAKI-1 renal,3.07 µM
same,TGI,CAKI-1 renal,> 100 µM
same,GI50,RXF 393 renal,3.38 µM
same,TGI,RXF 393 renal,14.5 µM
same,GI50,NCI-H522 lung,3.91 µM
same,TGI,NCI-H522 lung,17.1 µM
same,GI50,CCRF-CEM leukemia,4.51 µM
same,TGI,CCRF-CEM leukemia,16.7 µM
same,GI50,A498 renal,8.98 µM
same,TGI,A498 renal,71.8 µM
same,GI50,MALME-3M melanoma,0.357 µM
same,TGI,MALME-3M melanoma,1.49 µM
same,GI50,NCI-H226 lung,0.44 µM
same,TGI,NCI-H226 lung,13.3 µM
same,GI50,MOLT-4 leukemia,1.9 µM
same,TGI,MOLT-4 leukemia,5.02 µM
same,GI50,BT-549 breast,4.9 µM
same,TGI,BT-549 breast,27.2 µM
same,GI50,T-47D breast,1.82 µM
same,TGI,T-47D breast,8.64 µM
same,GI50,OVCAR-4 ovarian,12.5 µM
same,TGI,OVCAR-4 ovarian,31.8 µM
same,GI50,SK-OV-3 ovarian,9.15 µM
same,TGI,SK-OV-3 ovarian,> 100 µM
same,GI50,HCT-15 colon,5.14 µM
same,TGI,HCT-15 colon,> 100 µM
same,GI50,HCT-116 colon,3.13 µM
same,TGI,HCT-116 colon,16 µM
same,GI50,MDA-MB-231 breast,3.17 µM
same,TGI,MDA-MB-231 breast,> 100 µM
same,GI50,SK-MEL-28 melanoma,1.26 µM
same,TGI,SK-MEL-28 melanoma,4.32 µM
same,GI50,COLO 205 colon,1.26 µM
same,TGI,COLO 205 colon,12.3 µM
same,GI50,HS 578T breast,2.63 µM
same,TGI,HS 578T breast,15.6 µM
same,GI50,SNB-75 CNS,12.2 µM
same,TGI,SNB-75 CNS,89 µM
same,GI50,EKVX NSCLC,4.58 µM
same,TGI,EKVX NSCLC,27.7 µM
same,GI50,A549 NSCLC,7.81 µM
same,TGI,A549 NSCLC,> 100 µM
same,GI50,SNB-19 CNS,29.1 µM
same,TGI,SNB-19 CNS,> 100 µM
same,GI50,HL-60(TB) leukemia,1.67 µM
same,TGI,HL-60(TB) leukemia,4.48 µM
same,GI50,LOX IMVI melanoma,1.62 µM
same,TGI,LOX IMVI melanoma,4.41 µM
same,GI50,MCF7 breast,2.7 µM
same,TGI,MCF7 breast,14.3 µM
same,GI50,TK-10 renal,13.9 µM
same,TGI,TK-10 renal,87.4 µM
same,GI50,SW-620 colon,10.5 µM
same,TGI,SW-620 colon,> 100 µM
same,GI50,NCI/ADR-RES ovarian,7.83 µM
same,TGI,NCI/ADR-RES ovarian,66.4 µM
same,GI50,MDA-MB-435 melanoma,2.74 µM
same,TGI,MDA-MB-435 melanoma,89.2 µM
same,GI50,786-0 renal,4.93 µM
same,TGI,786-0 renal,> 100 µM
same,GI50,SF-268 CNS,0.0455 µM
same,TGI,SF-268 CNS,1.62 µM
same,GI50,NCI-H460 NSCLC,6.4 µM
same,TGI,NCI-H460 NSCLC,20.6 µM
same,GI50,HT29 colon,1.86 µM
same,TGI,HT29 colon,13.8 µM
same,GI50,UACC-257 melanoma,1.87 µM
same,TGI,UACC-257 melanoma,5.7 µM
same,GI50,HOP-62 NSCLC,4.67 µM
same,TGI,HOP-62 NSCLC,27.1 µM
same,GI50,U251 glioblastoma,10.3 µM
same,TGI,U251 glioblastoma,> 100 µM
same,GI50,OVCAR-3 ovarian,8.85 µM
same,TGI,OVCAR-3 ovarian,24.3 µM
same,GI50,DU-145 prostate,15 µM
same,TGI,DU-145 prostate,> 100 µM
same,GI50,OVCAR-8 ovarian,13 µM
same,TGI,OVCAR-8 ovarian,> 100 µM
same,GI50,UACC-62 melanoma,0.665 µM
same,TGI,UACC-62 melanoma,5.74 µM
same,GI50,RPMI-8226 leukemia,4.07 µM
same,TGI,RPMI-8226 leukemia,32 µM
same,TGI,K-562 leukemia,0.0258 µM
